Experiments:
Settings in all cases: tested as the 125I-labelled form
[1] = target: T1, Alpha-1,6-mannosylglycoprotein 6-beta-N-acetylglucosaminyltransferase A (Rattus norvegicus) (UniProt Q08834); assay: Activity at Wistar rat heart GnT-V assessed per mg of protein after 4 hrs by radio HPLC analysis
T1 sequence (whole entry): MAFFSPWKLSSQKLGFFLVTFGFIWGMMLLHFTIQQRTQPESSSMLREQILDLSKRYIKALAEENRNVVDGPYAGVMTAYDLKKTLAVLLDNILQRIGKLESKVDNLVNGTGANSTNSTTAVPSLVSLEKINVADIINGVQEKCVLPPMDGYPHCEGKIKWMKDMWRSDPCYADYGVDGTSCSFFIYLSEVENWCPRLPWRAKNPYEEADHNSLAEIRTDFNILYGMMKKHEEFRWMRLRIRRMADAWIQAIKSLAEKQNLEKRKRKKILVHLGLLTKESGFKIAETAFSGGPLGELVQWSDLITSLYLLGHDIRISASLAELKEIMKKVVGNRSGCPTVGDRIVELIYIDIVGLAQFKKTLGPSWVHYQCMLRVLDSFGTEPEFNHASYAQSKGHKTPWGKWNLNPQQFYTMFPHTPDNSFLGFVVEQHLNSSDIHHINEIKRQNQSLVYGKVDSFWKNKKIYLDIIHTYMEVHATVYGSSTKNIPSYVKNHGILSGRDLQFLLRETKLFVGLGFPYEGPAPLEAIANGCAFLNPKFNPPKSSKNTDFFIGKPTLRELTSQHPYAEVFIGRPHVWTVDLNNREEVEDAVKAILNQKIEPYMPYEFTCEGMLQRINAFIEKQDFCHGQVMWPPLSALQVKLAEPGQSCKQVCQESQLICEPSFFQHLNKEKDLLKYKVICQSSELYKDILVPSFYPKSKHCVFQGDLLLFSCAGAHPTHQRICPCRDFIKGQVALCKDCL

[2] = target: T1, Alpha-1,6-mannosylglycoprotein 6-beta-N-acetylglucosaminyltransferase A (Rattus norvegicus); assay: Activity at Wistar rat liver GnT-V assessed per mg of protein after 4 hrs by radio HPLC analysis
[3] = target: T1, Alpha-1,6-mannosylglycoprotein 6-beta-N-acetylglucosaminyltransferase A (Rattus norvegicus); assay: Activity at Wistar rat stomach GnT-V assessed per mg of protein after 4 hrs by radio HPLC analysis
[4] = target: T1, Alpha-1,6-mannosylglycoprotein 6-beta-N-acetylglucosaminyltransferase A (Rattus norvegicus); assay: Activity at Wistar rat lung GnT-V assessed per mg of protein after 4 hrs by radio HPLC analysis
[5] = target: T1, Alpha-1,6-mannosylglycoprotein 6-beta-N-acetylglucosaminyltransferase A (Rattus norvegicus); assay: Activity at Wistar rat spleen GnT-V assessed per mg of protein after 4 hrs by radio HPLC analysis
[6] = target: T1, Alpha-1,6-mannosylglycoprotein 6-beta-N-acetylglucosaminyltransferase A (Rattus norvegicus); assay: Activity at Wistar rat brain GnT-V assessed per mg of protein after 4 hrs by radio HPLC analysis
[7] = target: T1, Alpha-1,6-mannosylglycoprotein 6-beta-N-acetylglucosaminyltransferase A (Rattus norvegicus); assay: Activity at Wistar rat kidney GnT-V assessed per mg of protein after 4 hrs by radio HPLC analysis
[8] = target: T1, Alpha-1,6-mannosylglycoprotein 6-beta-N-acetylglucosaminyltransferase A (Rattus norvegicus); assay: Activity at Wistar rat intestine GnT-V assessed per mg of protein after 4 hrs by radio HPLC analysis
[9] = target: T1, Alpha-1,6-mannosylglycoprotein 6-beta-N-acetylglucosaminyltransferase A (Rattus norvegicus); assay: Activity at Wistar rat serum GnT-V assessed per mg of protein after 4 hrs by radio HPLC analysis

Activity [1]: 31 pmol/h | Activity [2]: 48 pmol/h | Activity [3]: 116 pmol/h | Activity [4]: 179 pmol/h | Activity [5]: 244 pmol/h | Activity [6]: 261 pmol/h | Activity [7]: 671 pmol/h | Activity [8]: 774 pmol/h | Activity [9]: 1280 pmol/h
Structure (SMILES): CC(=O)N[C@H]1[C@H](O[C@@H]2[C@@H](OC[C@H]3O[C@@H](OCCc4ccc(I)cc4)[C@H](O)[C@@H](O)[C@@H]3O)O[C@H](CO)[C@@H](O)[C@@H]2O)O[C@H](CO)[C@@H](O)[C@@H]1O

Source: ChEMBL document CHEMBL1806377, “Synthesis and evaluation of a radioiodinated trisaccharide derivative as a synthetic substrate for a sensitive N-acetylglucosaminyltransferase V radioassay” (Bioorg Med Chem, 2011)
